Data as given in patent US12552753B2, “Methods and compositions for targeting Tregs using CCR8 inhibitors” (Nanjing Immunophage Biomedical Co., Ltd., priority 2020, dated 2026).
Where a name gives a salt, the structure may show the parent alone.

molecular target: CCR8 (Homo sapiens, UniProt P51685); assay: Tango assay (Tango-CCR8-Gal4-CHO-K1 cells, CCL1-stimulated, ONE-Glo luminescence); conditions: Tango Assay IC50, Inhibition of CCR8 Tango cell in vitro
Sequence (P51685 whole entry, the tested form may be a part): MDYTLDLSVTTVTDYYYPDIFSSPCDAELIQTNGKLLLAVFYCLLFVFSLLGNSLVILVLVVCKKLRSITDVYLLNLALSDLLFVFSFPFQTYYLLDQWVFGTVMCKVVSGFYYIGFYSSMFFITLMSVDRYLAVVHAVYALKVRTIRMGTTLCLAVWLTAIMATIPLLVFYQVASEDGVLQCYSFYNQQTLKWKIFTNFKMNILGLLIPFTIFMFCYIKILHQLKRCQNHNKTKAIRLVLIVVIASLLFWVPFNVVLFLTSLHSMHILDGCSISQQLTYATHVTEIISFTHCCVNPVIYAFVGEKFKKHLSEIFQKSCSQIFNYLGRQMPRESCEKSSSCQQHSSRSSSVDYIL
Description: The Tango cell line was used to monitor antagonists-mediated receptor inactivation.
Tango cells (Tango-CCR8-Gal4-CHO-K1 cells constructed by Genomeditech) were passaged in complete medium (F12K, 10% FBS, 1% penicillin-streptomycin, 4 μg/ml puromycin, 4 μg/ml blasticidin and 100 μg/ml hygromycin) in incubator (37° C., 5% CO2).
Twenty-four hours before the seed, cells were cultured in 10 or 15 cm dish at a density of 30% confluence in culture medium (F12K, 10% FBS, 1% penicillin-streptomycin).
Cells were suspended in starving medium (F12K, 1% FBS, 1% penicillin-streptomycin) before being seeded into black/clear 96 wells (1×10^4 cells/70 μl/well) and incubated for 6 hours (37° C., 5% CO2). Different concentration of compound, dissolved in DMSO, was into the 96-well plates, with 50 μl in each well, and incubation continued for 1 hour at 37° C.
After the incubation, the medium was removed and the 96-well plate was put in −80° C. freezer for an hour or longer. The plate and the ONE-Glo reagent (Promega, Catalog Number: E6110) which was frozen in −80° C., were taken out and rewarmed to room temperature. The ONE-Glo working reagent was prepared by mixing ONE-Glo reagent with F12K (no FBS) (1:2), and 40 μl ONE-Glo working reagent was added into each well. After incubating for 10 minutes at room temperature, the plate was read using microplate luminescence reader at 560 nm.
The microplate reader records luminescence in relative luminescence units (RLU).

First: Cc1ccccc1C(=O)Nc1c(C)cc(S(=O)(=O)N[C@H](C)C2CCNCC2)cc1F [Compound 302, (R)-N-(2-fluoro-6-methyl-4-(N-(1-(piperidin-4-yl)eth-yl)sulfamoyl)phen-yl)-2-methylbenzamide hydrochloride]
Second: Cc1ccccc1C(=O)Nc1c(F)cc(S(=O)(=O)N[C@H](C)C2CCNCC2)cc1Cl [Compound 304, (R)-N-(2-chloro-6-fluoro-4-(N-(1-(piperidin-4-yl)ethyl)sulfamoyl)phenyl)-2-methylbenzamide hydrochloride]
The IC50 of the first is higher: > 100000 nM for the first, 3 nM for the second. The second is the more potent here.

Compared with Cc1ccccc1C(=O)Nc1cc(C)c(S(=O)(=O)N[C@H](C)C2CCN(C)CC2)cc1F [Compound 303, (R)-N-(2-fluoro-5-methyl-4-(N-(1-(1-methylpiperidin-4-yl)ethyl)sulfamoyl)phenyl)-2-methylbenzamide hydrochloride], Cc1ccccc1C(=O)Nc1cc(Cl)c(S(=O)(=O)N[C@H](C)C2CCN(C)CC2)cc1Cl [Compound 306, (R)-N-(2,5-dichloro-4-(N-(1-(1-methylpiperidin-4-yl)ethyl)sulfamoyl)phenyl)-2-methylbenzamide hydrochloride] is 1.5-fold lower in IC50: 9 nM for the first, 6 nM for the second. The second is the more potent here.

First: Cc1ccccc1C(=O)Nc1c(Cl)cc(S(=O)(=O)N[C@H](C)C2CCNCC2)cc1Cl [Compound 305, (R)-N-(2,6-dichloro-4-(N-(1-(piperidin-4-yl)ethyl)sulfamoyl)phenyl)-2-methylbenzamide hydrochloride]
Second: COc1cc(NC(=O)c2ccccc2C)c(C)cc1S(=O)(=O)N[C@H](C)C1CCNCC1 [Compound 314, (R)-N-(5-methoxy-2-methyl-4-(N-(1-(piperidin-4-yl)ethyl)sulfamoyl)phen-yl)-2-methylbenzamide hydrochloride]
The IC50 of the first is 11-fold lower: 1.5 nM for the first, 17 nM for the second. The first is the more potent here.

Cc1ccccc1C(=O)Nc1cc(Cl)c(S(=O)(=O)N[C@@H](C)C2CCN(C)CC2)cc1Cl [Compound 307, (S)-N-(2,5-dichloro-4-(N-(1-(1-methylpiperidin-4-yl)ethyl)sulfamoyl)phenyl)-2-methylbenzamide hydrochloride] and Cc1ccccc1C(=O)Nc1ccc(S(=O)(=O)N[C@H](C)C2CCN(C)CC2)c(C)c1Cl [Compound 308, (R)-N-(2-chloro-3-methyl-4-(N-(1-(1-methylpiperidin-4-yl)ethyl)sulfamoyl)phenyl)-2-methylbenzamide] cannot be ordered by IC50: > 100000 nM for the first, > 100000 nM for the second.

First: Cc1cc(S(=O)(=O)N[C@H](C)C2CCNCC2)ccc1NC(=O)C12CCC(CC1)CC2 [Compound 309, hydrochloride]
Second: Cc1cc(S(=O)(=O)N[C@H](C)C2CCNCC2)ccc1NC(=O)c1cccc2c1CCC2 [Compound 310, (R)-N-(2-methyl-4-(N-(1-(piperidin-4-yl)ethyl)sulfamoyl)phenyl)-2,3-dihydro-1H-indene-4-carboxamide hydrochloride]
The IC50 of the first is 2-fold higher: 10 nM for the first, 5 nM for the second.

Compared with Cc1ccccc1C(=O)Nc1cc(F)c(S(=O)(=O)NC2CCNCC2)cc1Cl [Compound 311, N-(2-chloro-5-fluoro-4-(N-(piperidin-4-yl)sulfamoyl)phenyl)-2-methylbenzamide hydrochloride], CC(=O)N1CCC(NS(=O)(=O)c2cc(Cl)c(NC(=O)c3ccccc3C)cc2F)CC1 [Compound 312, N-(4-(N-(1-acetylpiperidin-4-yl)sulfamoyl)-2-chloro-5-fluorophenyl)-2-methylbenzamide] is lower in IC50: > 100000 nM for the first, 301 nM for the second.

Cc1cc(S(=O)(=O)N[C@H](C)C2CCNCC2)ccc1NC1(c2ccccc2)COC1 [Compound 313, (R)-3-methyl-4-((3-phenyloxetan-3-yl)amino)-N-(1-(piperidin-4-yl)ethyl)benzene-sulfonamide] showed an IC50 of 224 nM.
